Measured values as given in patent US9169213B2, “Method of weight management” (Arena Pharmaceuticals, Inc., priority 2012, dated 2015).
Values joined by “and” are separate entries in the source; they are usually repeats but may differ in a detail not shown here. Identical values can stand only once.

What was measured:
Type in all cases: in vivo, human
[1] = Pooled BLOOM and BLOSSOM Phase 3 studies: Week 52 outcomes by Week 12/Week 24 responder status, patients without T2DM; details: for Diastolic BP, Week 52 Change from Baseline Mean (SE) / HbA1c, Week 52 Change from Baseline Mean (SE) / Heart Rate, Week 52 Change from Baseline Mean (SE) / Systolic BP, Week 52 Change from Baseline Mean (SE): Without T2DM
Experimental: APD356-009 (“BLOOM”) was a 104-week, placebo controlled study that assessed the safety and efficacy of lorcaserin 10 mg BID in overweight and obese patients, with concurrent behavior modification. The primary efficacy objective during Year 1 was to evaluate weight loss; the primary objective during Year 2 was to assess the ability of lorcaserin to maintain body weight loss that was achieved during Year 1. At study start, each patient received randomized, double blind treatment assignments for Year 1 and for Year 2 (all patients were given a new randomization number for Year 2 to assure that patients and study personnel remained blinded to treatment assignments). All patients assigned to placebo during Year 1 (50% of randomized population) remained on placebo in Year 2. Patients assigned to lorcaserin during Year 1 were randomly assigned to stay on lorcaserin during Year 2 (⅔ of Year 1 lorcaserin patients) or to switch to placebo (⅓ of Year 1 lorcaserin patients).
APD356-011 (“BLOSSOM”) was a 52-week, placebo controlled study that evaluated the effect of two lorcaserin doses (10 mg BID and 10 mg QD) on categorical and total weight loss with concurrent behavior modification. Patients were randomized in a ratio of 2:1:2 to lorcaserin 10 mg BID, 10 mg QD, or placebo.
(§1) An analysis of early weight loss was performed, at each visit after baseline through Week 24, as a predictor of ultimate weight loss success, as defined by achieving at least about 5% weight loss at 52 weeks, or at least about 10% weight loss at 52 weeks.

[2] = BLOOM-DM (APD356-010) Phase 3 study: Week 52 outcomes by Week 12/Week 24 responder status, patients with type 2 diabetes mellitus; details: for Diastolic BP, Week 52 Change from Baseline Mean (SE) / HbA1c, Week 52 Change from Baseline Mean (SE) / Heart Rate, Week 52 Change from Baseline Mean (SE) / Systolic BP, Week 52 Change from Baseline Mean (SE): With T2DM
Experimental: APD356-010 (BLOOM-DM) was a 52-week, placebo controlled study that evaluated the effect of two lorcaserin doses (10 mg BID and 10 mg QD) on categorical and total weight loss with concurrent behavior modification in 604 patients with type 2 diabetes mellitus managed with oral hypoglycemic agents. Randomization to the 10 mg once daily group was halted by protocol amendment in order to accelerate enrollment, resulting in final group sizes of 253 (placebo), 95 (lorcaserin QD) and 256 (lorcaserin BID).
as §1
Table 3 and Table 4 provide the sensitivity, specificity, positive predicted value (PPV) and negative predictive value (NPV) at Weeks 12 and 24 for at least about 5% and at least about 10% weight loss at Week 52 in different studies. The rounded percent weight loss at Week 12 for at least 5% and at least about 10% weight loss at Week 52 are about 5% and about 6%, respectively. Using the about 6% weight loss at Week 12 as a criterion enhances the PPV for both about 5% and about 10% categorical weight loss at Week 52, but at the expense of excluding about 10% and about 4% more of the about 5% categorical responders at Week 52 in patients without and with diabetes, respectively, based upon NPV. The rounded optimal thresholds at Week 24 for at least about 5% and at least about 10% weight loss at Week 52 are about 6% and about 9%, respectively. Using the 9% weight loss criterion at Week 24 enhances the PPV for both about 5% and about 10% categorical weight loss at Week 52, but at the expense of excluding about 19% and about 9% more of the about 5% categorical responders at Week 52 in patients without and with diabetes, respectively, based upon NPV. As described below, if at least about a 5% weight loss criterion is applied, patients achieving this milestone will achieve an average of about 10.8% weight loss in patients without diabetes and about 9.1% weight loss in patients with diabetes at Week 52.
Tables 6 and 7, below, present weight loss, vital sign, and glycemic changes at Week 52 in pooled patients without diabetes, patients with T2DM, and pooled patients with impaired fasting glucose (IFG; ≧100 mg/dL) who were Week 12 responders.

[3] = Lorcaserin pivotal phase 3 clinical trial program (NDA summary)
Text: The NDA submission is based on an extensive data package from lorcaserin's clinical development program that includes 18 clinical trials totaling 8,576 patients. […] About two-thirds of patients achieved at least 5% weight loss and over one-third achieved at least 10% weight loss. On average, patients lost 17 to 18 pounds or about 8% of their weight. Secondary endpoints, including body composition, lipids, cardiovascular risk factors and glycemic parameters improved compared to placebo. In addition, heart rate and blood pressure went down. […] Lorcaserin improved quality of life, and there was no signal for depression or suicidal ideation. The only adverse event that exceeded the placebo rate by 5% was generally mild or moderate, transient headache. Based on a normal BMI of 25, patients in the first phase 3 trial lost about one-third of their excess body weight. The average weight loss was 35 pounds or 16% of body weight for the top quartile of patients in the second phase 3 trial.

[4] = Week 12 Non-responder (<5%), Completers Population, 10 mg BID
[5] = Week 12 Non-responder (<5%), MITT with LOCF, 10 mg BID
[6] = Week 12 Responder (≧5% weight loss), Completers Population, 10 mg BID
[7] = Week 12 Responder (≧5% weight loss), MITT with LOCF, 10 mg BID
[8] = Week 12 responders without diabetes
[9] = Week 12 Nonresponder (5%), 10 mg BID
[10] = Week 12 Responder (5%), 10 mg BID
[11] = of patients with observed Week 12 data, without diabetes, 10 mg BID, listed as Lorcaserin
[12] = Week 12 Responder (≧5%), Completers Population, 10 mg BID
[13] = of patients with observed Week 12 data, type 2 diabetes, 10 mg BID

C[C@H]1CNCCc2ccc(Cl)cc21 [lorcaserin, (R)-8-chloro-1-methyl-2,3,4,5-tetrahydro-1H-3-benzazepine]
Week 52 Weight 5% Responder [1, 4]: 35.9% | Week 52 Weight 10% Responder [1, 4]: 7.4% | Week 52 Weight Mean (SE) Change from Baseline, kg [1, 4]: −3.50 (0.18) kg | Week 52 Weight Mean (SE) Percent Change from Baseline, % [1, 4]: −3.44 (0.18) % | Week 52 Weight 10% Responder [1, 5]: 4.7% | Week 52 Weight Mean (SE) Change from Baseline, kg [1, 5]: −2.76 (0.12) kg | Week 52 Weight Mean (SE) Percent Change from Baseline, % [1, 5]: −2.73 (0.12) % | Week 52 Weight 5% Responder [1, 6]: 85.8% | Week 52 Weight 10% Responder [1, 6]: 55.9% | Week 52 Weight Mean (SE) Change from Baseline, kg [1, 6]: −11.31 (0.21) kg | Week 52 Weight Mean (SE) Percent Change from Baseline, % [1, 6]: −11.52 (0.21) % | Week 52 Weight 10% Responder [1, 7]: 49.8% | Week 52 Weight Mean (SE) Change from Baseline, kg [1, 7]: −10.63 (0.18) kg | Week 52 Weight Mean (SE) Percent Change from Baseline, % [1, 7]: −10.84 (0.18) % | Week 52 reduction in diastolic blood pressure [1, 8]: 2.5 mmHg | Week 52 reduction in heart rate [1, 8]: 2.5 BPM | Week 52 reduction in systolic blood pressure [1, 8]: 3.4 mmHg | Diastolic BP, Week 52 Change from Baseline Mean (SE) [1, 9]: −1.02 (0.25) | HbA1c, Week 52 Change from Baseline Mean (SE) [1, 9]: −0.05 (0.01) | Heart Rate, Week 52 Change from Baseline Mean (SE) [1, 9]: −0.29 (0.26) | Systolic BP, Week 52 Change from Baseline Mean (SE) [1, 9]: −0.82 (0.34) | Diastolic BP, Week 52 Change from Baseline Mean (SE) [1, 10]: −2.52 (0.25) | HbA1c, Week 52 Change from Baseline Mean (SE) [1, 10]: −0.18 (0.01) | Heart Rate, Week 52 Change from Baseline Mean (SE) [1, 10]: −2.45 (0.26) | Systolic BP, Week 52 Change from Baseline Mean (SE) [1, 10]: −3.39 (0.34) | Week 12 Non-Responder (<5% wt loss), percentage of patients ([1]; of patients with observed Week 12 data, without diabetes, 10 mg BID): 1,286/2,537(50.7%) | Week 12 Non-Responder (<5% wt loss), percentage of patients [1, 11]: 1286 (50.7%) | Week 12 Responder (at least 5% weight loss at Week 12), percentage of patients [1, 11]: 1251 (49.3%) | average weight loss at Week 52 ([1]; patients without diabetes achieving at least about 5% weight loss at Week 12): about 10.8% | Week 52 Weight 5% Responder [2, 4]: 29.0% | Week 52 Weight 10% Responder [2, 4]: 10.0% | Week 52 Weight Mean (SE) Change from Baseline, kg [2, 4]: −3.45 (0.44) kg | Week 52 Weight Mean (SE) Percent Change from Baseline, % [2, 4]: −3.36 (0.42) % | Week 52 Weight 5% Responder [2, 5]: 25.2% | Week 52 Weight 10% Responder [2, 5]: 8.6% | Week 52 Weight Mean (SE) Change from Baseline, kg [2, 5]: −3.20 (0.36) kg | Week 52 Weight Mean (SE) Percent Change from Baseline, % [2, 5]: −3.13 (0.35) % | Week 52 Weight 5% Responder [2, 7]: 71% and 70.5% | Week 52 Weight 10% Responder [2, 7]: 36% and 35.9% | Week 52 Weight Mean (SE) Change from Baseline, kg [2, 7]: −9.26 (0.77) kg | Week 52 Weight Mean (SE) Percent Change from Baseline, % [2, 7]: −9.07 (0.70) % | Week 52 Weight 5% Responder [2, 12]: 70.8% | Week 52 Weight 10% Responder [2, 12]: 40.0% | Week 52 Weight Mean (SE) Change from Baseline, kg [2, 12]: −9.77 (0.89) kg | Week 52 Weight Mean (SE) Percent Change from Baseline, % [2, 12]: −9.49 (0.80) % | change in HbA1c at Week 52 ([2]; Week 12 non-responders with type 2 diabetes): −0.84% | Week 52 reduction in diastolic blood pressure ([2]; Week 12 responders with T2DM): 1.9 mmHg | Week 52 reduction in heart rate ([2]; Week 12 responders with T2DM): 3.2 BPM | Week 52 reduction in systolic blood pressure ([2]; Week 12 responders with T2DM): 2.6 mmHg | A1C W52 Change ([2]; Week 12 responders, patients with T2DM, 10 mg BID): −1.2% | Diastolic BP, Week 52 Change from Baseline Mean (SE) [2, 9]: −1.07 (0.86) | HbA1c, Week 52 Change from Baseline Mean (SE) [2, 9]: −0.84 (0.09) | Heart Rate, Week 52 Change from Baseline Mean (SE) [2, 9]: −0.87 (0.73) | Systolic BP, Week 52 Change from Baseline Mean (SE) [2, 9]: −0.55 (1.11) | Diastolic BP, Week 52 Change from Baseline Mean (SE) [2, 10]: −1.91 (1.01) | HbA1c, Week 52 Change from Baseline Mean (SE) [2, 10]: −1.20 (0.11) | Heart Rate, Week 52 Change from Baseline Mean (SE) [2, 10]: −3.24 (1.21) | Systolic BP, Week 52 Change from Baseline Mean (SE) [2, 10]: −2.59 (1.73) | Week 12 Non-Responder, percentage of patients [2, 13]: 139 (64.1%) | Week 12 Responder (at least 5% weight loss at Week 12), percentage of patients [2, 13]: 35.9% | Week 12 Responder (at least 5% weight loss at Week 12), percentage of patients ([2]; of patients with observed Week 12 data, type 2 diabetes, 10 mg BID, listed as Lorcaserin): 78 (35.9%) | average weight loss at Week 52 ([2]; patients with diabetes achieving at least about 5% weight loss at Week 12): about 9.1% | risk of cardiac valvulopathy ([3]; phase 3 program): did not increase | average weight lost, of their weight ([3]; pivotal phase 3 program): about 8% | average weight loss of body weight, top quartile of patients ([3]; second phase 3 trial): 16% | average weight loss, top quartile of patients ([3]; second phase 3 trial): 35 pounds
